# Several values for one entry are separate records, joined by “and”; a condition that tells them apart may be missing. Equal entries are not always repeated. Where two headings read alike, the source gives them in different places.
# Experiments:
# [1] = test system: CCRF-CEM human T-cell acute lymphoblastic leukemia cell line; test: XTT cytotoxicity (cell growth inhibition), CCRF-CEM
# Procedure: (§1) The DC-3F hamster lung fibroblast cell line and its actinomycin D-selected sublines (DC-3F/ADII and DC-3F/ADX) were obtained from the Memorial Sloan-Kettering Cancer Center (MSKCC).
# (§2) The drug-resistant cell lines were continuously cultured in the presence of the selecting agent, AD, DX, VBL or VM to maintain the drug resistant phenotypes. […] All cells were cultured in RPMI 1640-10% FBS at 37° C. 5% CO2 (see below).
# (§3) The cells were cultured at an initial density of 5×10^4 cells/mL. They were maintained in a 5% CO2-humidified atmosphere at 37° C. in RPMI-1640 medium (GIBCO-BRL, Gaithersburg, Md.) containing penicillin (100 U/mL), streptomycin ([…]) (GIBCO-BRL) and 10% heat inactivate fetal bovine serum. Culture for cell suspension (such as for CCRF-CEM, P388 and sublines), were performed by the XTT-microculture tetrazonium method (Scudiero, D. A. et al., Cancer Res. 1988, 48, 4827-4833) in duplicate in 96-well microtiter plates.
# (§4) 2′,3′-Bis(methoxy-4-nitro-5-sufophenyl)-5-[(phenylamino)carbonyl]2H-tetrazolium hyudroxide (XTT) was prepared at 1 mg/mL in prewarmed (37° C.) medium without serum. Phenazine methosulfate (PMS) and fresh XTT were mixed together to obtain 0.025 mM PMS-XTT solution (25 μL of the stock 5 mM PMS was added per 5 mL of 1 mg/mL XTT). Following a 72 h incubation, 50 μL of the assay aliquots were added to each well of the cell culture. After incubation at 37° C. for 4 h, absorbance at 450 nm and 630 nm was measured with a microplate reader (EL340, Bio-Tek Instruments, Inc., Winooski, Vt.).
# [2] = test system: CCRF-CEM/VBL100; test: cells; assay type: cell-based, human
# Procedure: as §2, §3, §4
# [3] = test system: CCRF-CEM/VM1; test: cells; assay type: cell-based, human
# Procedure: as §2, §3, §4
# [4] = test system: DC-3F hamster lung fibroblast cell line; test: SRB cytotoxicity, DC-3F; assay type: cell-based; details: Table 3
# Procedure: as §1, §2
# (§5) The cytotoxicity of the drug toward the monolayer cell cultures (such as DC-3F, MCF-7, SK-N-As and sublines) was determined in 96-well microtiter plates by the SRB method as described by Skehan and co-workers (Skehan, P., et al., J. Natl. Cancer Inst. 1990, 82, 1107-1112) for measuring the cellular protein content. Cultures were fixed with trichloroacetic acid and then stained for 30 min with 0.4% suforhodamine B dissolved in 1% acetic acid. Unbound dye was removed by acetic acid washes, and the protein-bound dye was extracted with an unbuffered Tris base (tris(hydroxy-methyl)aminomethane) for determination of absorbance at 570 nm in a 96-well microtiter plate reader. The experiments were carried out in duplicate. Each run entailed six to seven concentrations of the tested drugs. Data were analyzed with the median-effect plot (Chou, T.-C. & Talalay, P. T. (1984) Adv. Enzyme Regul. 22, 27-55) using a previously described computer program (Chou, J., & Chou T.-C. 1987, Dose-effect analysis with microcomputers: Quantitation of ED50, synergism, antagonism, low-dose risk, reception-ligand binding and enzyme kinetics, IBM-PC software and manual, Biosoft, Cambridge, U.K.).
# [5] = test system: DC-3F/ADII; test: SRB cytotoxicity, DC-3F/ADII; assay type: cell-based, hamster
# Procedure: as §1, §2, §5
# (§6) Concerning Table 3, experiments were carried out using the cell lines DC-3F (parent hamster lung cells), DC-3F/ADII (moderate multidrug-resistant (MDR) cells) and DC-3F/ADX (very strong MDR cells).
# [6] = test system: DC-3F/ADX; test: cells; assay type: cell-based, hamster; details: Table 3
# Procedure: as §1, §2, §5, §6
# [7] = test system: CCRF-CEM/Taxol®; test: cells; assay type: cell-based, human
# Procedure: as §2, §3, §4
# [8] = test system: MDR human mammary adenocarcinoma MCF-7/Adr xenograft; test: in vivo; details: MCF-7/Adr; i.v. infusion (order wraps over rows r16-r17)
# Procedure: DMSO was used as a vehicle for epothilones. Each mouse received ≦40 μL DMSO in all experiments.
# Athymic nude mice (nu/nu) were used for MX-1 and MCF-7/Adr human mammary carcinoma xenografts. Mice were obtained from Taconic Laboratory Animals and Service (Germantown, N.Y.: outbred, Swiss background).
# [9] = test system: PC-3 Human Prostate Carcinoma; test: PC-3 xenograft; assay type: in vivo, nude mice
# [10] = test system: A549 Human Lung Carcinoma; test: A549 xenograft; assay type: in vivo, nude mice
# [11] = Table 2, CCRF-CEM/VLB, read-out: IC50
# [12] = Table 6, read-out: IC50 (mean ± of determinations, in parentheses)
# [13] = Table 6, single determinations, read-out: IC50
# [14] = Table 2, CCR-CEM/VM-1, read-out: IC50
# [15] = Homo sapiens, CCRF-CEM, 72 h, Table 1A, XTT
# [16] = Homo sapiens, CCRF-CEM, Table 5, single determinations
# [17] = Homo sapiens, CCRF-CEM, read-out: IC50 (mean ± of determinations, in parentheses), Table 5
# [18] = Table 5, single determinations, listed as VP-16
# [19] = dEpoB 30 mg/kg 18 hr i.v. infusion, Taxol 16 mg/kg 6 hr infusion, VBL 2 and VP-16 25 mg/kg i.v. inj
# [20] = Q2D x 3: dEpoB 30 mg/kg 18 hr i.v. infusion, Taxol 15 mg/kg 6 hr infusion, VBL 2 and VP-16 25 mg/kg i.v. inj
compound,measurement,setting,value
"C/C(=C\c1csc(C)n1)[C@@H]1C[C@@H]2O[C@@H]2CCC[C@H](C)[C@H](O)[C@@H](C)C(=O)C(C)(C)[C@@H](O)CC(=O)O1 [EPOTHILONE A NATURAL, epothilone A]",IC50,[1]; Table 2,3.5 nM
same,IC50,"[1]; Table 6, single determinations",2.4 nM and 3.1 nM
same,IC50,"[1]; read-out: IC50 (mean ± of determinations, in parentheses), Table 6",2.7 nM
same,IC50,[2]; [11],27.2 nM
same,relative resistance (fold) vs parent cell line,[2]; Table 6,(7.4X)
same,IC50,[2]; [12],20 nM
same,IC50,[2]; [13],21.1 nM and 18.9 nM
same,IC50,[3]; [14],3.4 nM
same,relative resistance (fold) vs parent cell line,[3]; Table 6,(2.3X)
same,IC50,[3]; [12],6.13 nM
same,IC50,[3]; [13],6 nM and 6.25 nM
same,IC50,[4]; read-out: IC50,3.68 nM
same,IC50,"[5]; Table 3, read-out: IC50",12.4 nM
same,IC50,[6]; read-out: IC50,53.3 nM
"C/C(=C\c1csc(C)n1)[C@@H]1C[C@@H]2O[C@@H]2CCC[C@H](C)[C@H](O)[C@@H](C)C(=O)C(C)(C)[C@@H](O)CC(=O)O1 [EPOTHILONE A SYNTHETIC, epothilone A]",IC50,[1]; Table 2,2.9 nM
same,IC50,"[1]; Table 5, single determinations",2.1 nM
same,IC50,[2]; [11],20.3 nM
same,IC50,"[2]; Table 5, CCRF-CEM/VLB, single determinations, read-out: IC50",15 nM
same,IC50,[3]; [14],3.4 nM
same,IC50,[4]; read-out: IC50,3.54 nM
same,IC50,"[5]; Table 3, read-out: IC50",13.2 nM
same,IC50,[6]; read-out: IC50,70 nM
"COc1cc([C@@H]2c3cc4c(cc3[C@@H](O[C@@H]3O[C@@H]5CO[C@@H](C)O[C@H]5[C@H](O)[C@H]3O)[C@H]3COC(=O)[C@H]23)OCO4)cc(OC)c1O [Etoposide, etoposide]",IC50,"[1]; Homo sapiens, CCRF-CEM",290 nM
same,IC50,[1]; [15],290 nM
same,IC50,"[1]; Homo sapiens, CCRF-CEM, Table 2",221 nM
same,IC50,[1]; [16],259 nM
same,IC50,[1]; [17],293 nM
same,IC50,[1]; [18],323 nM and 296 nM
same,IC50,"[7]; Homo sapiens, CCRF-CEM, 72 h",1320 nM
same,(C)/(A) IC50 ratio,"[7]; Table 1A, CCRF-CEM/Taxol vs CCRF-CEM",4.5
same,Potency in parentheses relative to Epo B in CCRF-CEM cells,[2]; CCRF-CEM/VBL MDR cells,1/29514
same,Potency in square brackets relative to Epo B in CCRF-CEM/VBL MDR cells,[2]; CCRF-CEM/VBL MDR cells,1/4919
same,IC50,"[2]; Homo sapiens, CCRF-CEM",10300 nM
same,IC50,[2]; [15],10300 nM
same,IC50,"[2]; Homo sapiens, CCRF-CEM, Table 2, CCRF-CEM/VLB",7390 nM
same,IC50,[2]; [17],10300 nM
same,(B)/(A) IC50 ratio,"[2]; Table 1A, CCRF-CEM/VBL100 vs CCRF-CEM",35
same,relative resistance (fold) vs parent cell line,[2]; Table 5,(35.3X)
same,fold resistance vs parent CCRF-CEM,[3]; CCRF-CEM/VM1 cells,117 fold
same,IC50,[3]; [15],34400 nM
same,IC50,"[3]; Homo sapiens, CCRF-CEM, Table 2, CCR-CEM/VM-1",34500 nM
same,IC50,[3]; [16],35000 nM
same,IC50,[3]; [17],34400 nM
same,(D)/(A) IC50 ratio,"[3]; Table 1A, CCRF-CEM/VM1 vs CCRF-CEM",117
same,relative resistance (fold) vs parent cell line,[3]; Table 5,(117.4X)
same,IC50,[3]; [18],42200 nM and 25900 nM
same,IC50,"[4]; Mesocricetus auratus, DC3F",33.9 nM
same,IC50,"[5]; Mesocricetus auratus, DC3F",632 nM
same,IC50,[6]; DC3F/ADX,12100 nM
same,Therapeutic effect Rank Order,[8],"dEpoB >> VP-16,"
same,Therapeutic effect Rank Order,"[9]; PC-3, i.v. infusion (order wraps over rows r24-r25)",dEpoB >> VP-16
same,"Average Body Weight (change), Day 9",[9]; [19],+0.3 g
same,"Average Body Weight (change), Day 11",[9]; [19],-0.1 g
same,"Average Body Weight (change), Day 13",[9]; [19],-2.4 g
same,"Average Tumor Size (TC), Day 9",[9]; [19],1.00 TC
same,"Average Tumor Size (TC), Day 11",[9]; [19],1.12 TC
same,"Average Tumor Size (TC), Day 13",[9]; [19],0.88 TC
same,Tumor Disappearance,[9]; [19],0/3
same,"Average Body Weight, Day 5","[9]; initial weight, dEpoB 30 mg/kg 18 hr i.v. infusion, Taxol 16 mg/kg 6 hr infusion, VBL 2 and VP-16 25 mg/kg i.v. inj",24.9 g
same,Therapeutic effect Rank Order,"[10]; A549, i.v. infusion","Taxol ®, dEpoB, VBL > VP-16"
same,"Average Body Weight (change), Day 11",[10]; [20],+0.1 g
same,"Average Body Weight (change), Day 13",[10]; [20],-0.2 g
same,"Average Body Weight (change), Day 15",[10]; [20],-2.2 g
same,Tumor Disappearance,[10]; [20],0/3
same,"Average Tumor Size, Day 11","[10]; Q2D x 3: dEpoB 30 mg/kg 18 hr i.v. infusion, Taxol 15 mg/kg 6 hr infusion, VBL 2 and VP-16 25 mg/kg i.v. inj, control 96",59 mm^3
same,"Average Tumor Size, Day 13","[10]; Q2D x 3: dEpoB 30 mg/kg 18 hr i.v. infusion, Taxol 15 mg/kg 6 hr infusion, VBL 2 and VP-16 25 mg/kg i.v. inj, control 128",150 mm^3
same,"Average Tumor Size, Day 15","[10]; Q2D x 3: dEpoB 30 mg/kg 18 hr i.v. infusion, Taxol 15 mg/kg 6 hr infusion, VBL 2 and VP-16 25 mg/kg i.v. inj, control 306",275 mm^3
same,"Average Tumor Size, Day 17","[10]; Q2D x 3: dEpoB 30 mg/kg 18 hr i.v. infusion, Taxol 15 mg/kg 6 hr infusion, VBL 2 and VP-16 25 mg/kg i.v. inj, control 553",536 mm^3
same,"Average Body Weight, Day 7","[10]; initial weight, Q2D x 3: dEpoB 30 mg/kg 18 hr i.v. infusion, Taxol 15 mg/kg 6 hr infusion, VBL 2 and VP-16 25 mg/kg i.v. inj",27.2 g
epothilone B,IC50,"[1]; Table 6, single determinations",0.33 nM
same,relative resistance (fold) vs parent cell line,[2]; Table 6,(6.1X)
same,IC50,[2]; [13],2.1 nM
same,relative resistance (fold) vs parent cell line,[3]; Table 6,(3.6X)
same,IC50,[3]; [13],1.2 nM
